Where a name gives a salt, the structure may show the parent alone.
Assays:
human cultured PBMC = experiment: Cell migration test (in vitro, human MIP-1β-induced migration of human cultured PBMC); type: cell-based; conditions: human MIP-1β in lower well, incubated 1.5 hours, average value (n=3), read-out: IC50 value, inhibitory activity against human MIP-1β-induced cell migration of human cultured PBMC
Description: Preparation of PBMC (Peripheral Blood Mononuclear Cell)
Human venous blood (50 mL) collected by using syringe with heparin sodium (final concentration: 10 U/mL, heparin sodium injection 1000 U/mL, Shimizu Pharmaceutical Co., Ltd.) was stored into 50 mL of conical tube made by polypropylene. To a Lymphoprep tube (HYCOMED PHARMA, Cat. No 1019818), 16.5 mL of DPBS (−) (GIBCO, Cat No. 14190-136) and a blood sample were added, jiggled several times, then centrifuged at 3000 rpm for 10 minutes at room temperature. […]
50 μL of 5×10^5 cells of the human PBMC suspension (culture medium) and 50 μL of the solution of the test compound (0-2 μmol/L: double concentration of a final concentration) were added to an upper well of transwell (coster), and 300 μL of 60 nmol/L of the human MIP-1β (Pepro tech, Cat. No. 300-09) and 300 μL of a double concentration of the solution of the test compound were added to a lower well. […] 100 μL of the solution was transferred to white 96 well plate for fluorescence from lower well by pipetting, an amount of cells was measured by using Celltiter Glo (Promega) (a measurement of ATP), Cell migration inhibition ratio was calculated by the following calculating formula. The value of IC50 was calculated from cell migration inhibition ratio of each concentration. […]

[1] = Stability test in liver microsome of monkey; conditions: liver microsome of monkey 1 mg/mL, test compound 5 μmol/L, 30 minutes at 37° C.

SMILES	IC50 (human cultured PBMC)	residual ratio of the unmetabolite [1]
CS(=O)(=O)Nc1ccc(Oc2ccc(CN3CCC(N(C(=O)Nc4ccc(F)cc4)c4ccsc4)CC3)cn2)cc1 [Example 7(29), N-(4-{[5-({4-[{[(4-fluorophenyl)amino]carbonyl}(3-thienyl)amino]-1-piperidinyl}methyl)-2-pyridinyl]oxy}phenyl)methanesulfonamide hydrochloride (or dihydrochloride)]	1.2 nM	–
CC(=O)Nc1cc(NC(=O)N(c2ccccc2)C2CCN(Cc3ccc(Oc4ccc(NS(C)(=O)=O)cc4)nc3)CC2)ccc1F [Example 7(83), N-[2-fluoro-5-({[{1-[(6-{4-[(methylsulfonyl)amino]phenoxy}-3-pyridinyl)methyl]-4-piperidinyl}(phenyl)amino]carbonyl}amino)phenyl]acetamide hydrochloride (or dihydrochloride)]	–	88%

Source: US8604207B2, “Nitrogenous heterocyclic derivative and medicine containing the same as an active ingredient” (Ono Pharmaceutical Co., Ltd., priority 2004, dated 2013)
